≈ marks a conversion by molar mass, not a printed value. Where “and” joins values, the source holds several entries; their conditions need not be identical. Equal entries are not always repeated. Where two headings read alike, the source gives them in different places.
What was measured:
SARS-CoV-2 nsp3-mac1 [1] = target: T1, SARS-CoV-2 nsp3-mac1 (Severe acute respiratory syndrome coronavirus 2, UniProt P0DTD1); experiment: biochemical
SARS-CoV-2 nsp3-mac1 [2] = target: T1, SARS-CoV-2 nsp3-mac1; experiment: biochemical; format: biochemical
in vitro = details: human, hela-ace2 cells, 50.0
SARS-CoV-2 = experiment: Antiviral effect in iPSC-derived pneumocyte system; format: cell-based; details: iPSC pneumocytes SARS-CoV-2 antiviral effect
LogD = details: pH 7.4; In vitro LogD
[3] = test system: SARS-CoV-2, isolate USA-WA1/2020; experiment: microbe, parasite or virus in culture; format: cell-based; details: HeLa-ACE2 SARS-CoV-2 antiviral effect without P-gp inhibitor; for perc_max_measured: maximum measured response of dose series; for perc_min_measured: minimum measured response of dose series; for EC50: read-out: ec50; for EC90: read-out: ec90
HeLa-ACE2 cells = details: for perc_max_measured: highest measured response of the dose series; for perc_min_measured: lowest measured response of the dose series
[4] = Hepatic microsomal stability, HLM; format: in vitro ADME, human; details: In vitro human liver microsomal stability; for perc_remaining_no_cofactor: no cofactor
[5] = In vitro kinetic solubility; details: In vitro kinetic solubility, ph 7.4
[6] = Hepatic microsomal stability, MLM; format: in vitro ADME
iPSC pneumocytes = iPSC pneumocytes cytotoxicity; format: cell-based; details: protocol iPSC pneumocytes cytotoxicity
Description: Supplement media-1.zip/Cytotoxicity.csv, table | column: cc10; cc50; perc_min_measured; perc_max_measured

[7] = Permeability Papp (AB) MDR1/MDCKII; details: for papp_a_to_b_mean / perc_recovery_a_to_b_mean / papp_b_to_a_mean / efflux_ratio / perc_recovery_b_to_a_mean: In vitro MDR1-MDCKII permeability; for papp_a_to_b_mean: A to B; for perc_recovery_a_to_b_mean / perc_recovery_a_to_b_inhibitor_mean: recovery A to B; for perc_recovery_b_to_a_mean / perc_recovery_b_to_a_inhibitor_mean: recovery B to A
SARS-CoV-2 nsp3-mac1 [8] = target: T1, SARS-CoV-2 nsp3-mac1; experiment: biochemical; design: SARS-CoV-2 nsp3 macrodomain TR-FRET single point, per cent inhibition, n=2; details: read-out: perc_inhibition_mean, batch_name=ASAP-0000134-001
[9] = IC50, nsp3-mac1 activity, Figures 1-3 and text
[10] = HTRF IC50, Figure 4A, racemic mixture
[11] = protocol HeLa-ACE2 cytotoxicity
[12] = In vitro mouse liver microsomal stability
[13] = In vitro mouse liver microsomal stability; no cofactor
[14] = In vitro mouse liver microsomal stability, no cofactor
[15] = MDR1-MDCKII, with inhibitor Cyclosporin A
[16] = MDR1-MDCKII, with inhibitor Verapamil

SMILES | IC50 (SARS-CoV-2 nsp3-mac1 [1]; [9]) [µM] | CC50 at 24 h (in vitro) [µM] | logd (LogD) | perc_max_measured [3] | perc_min_measured [3] | EC50 [3] | EC90 [3] | clint [4] [µL/min/mg] | perc_remaining [4] [%] | t_half [4] [min] | perc_remaining_no_cofactor [4] [%] | solubility_mean [5] [µM] | clint [6, 12] [µL/min/mg] | perc_remaining [6, 12] [%] | t_half [6, 12] [min] | also measured
Cc1[nH]c2ncnc(NC(=O)C3CC=CC3)c2c1C [ASAP-0000025] | 42 |  |  |  |  |  |  |  |  |  |  |  |  |  |  | inhibition at 50 µM (SARS-CoV-2 nsp3-mac1 [2]; read-out: perc_inhibition_mean): 73.1%
CC(C)(C)C(Nc1ncnc2[nH]ccc12)c1ccc2c(c1)OCCO2 (stereo not drawn) [ASAP-0008277] |  |  |  |  |  |  |  |  |  |  |  |  |  |  |  | IC50 (SARS-CoV-2 nsp3-mac1 [1]; [10]): 1.1 µM
O=C(O)C(Nc1ncnc2[nH]ccc12)c1ccc2c(c1)OCCO2 (stereo not drawn) [ASAP-0000789] |  |  |  |  |  |  |  |  |  |  |  |  |  |  |  | IC50 (SARS-CoV-2 nsp3-mac1 [1]; [10]): 8.7 µM
Cn1ncc(-c2cc3c(N[C@@H](c4ccc5c(c4)OCCO5)C(C)(C)C)ncnc3[nH]2)c1C#N (racemic) [ASAP-0008484] |  | > 20 | 2.9 | 91.316% and 93.387% | 1.9% and 1.413% | 1.05 µM and 1.12 µM | 2.12 µM and 3.3 µM | 85.0 | 22.0 | 19.6 | 109.0 | 25 (≈ 11.1 µg/mL) | 199.0 | 4.0 | 8.4 | EC50 (SARS-CoV-2): 7.67 µM; EC90 (SARS-CoV-2): 13.4 µM; perc_max_measured (SARS-CoV-2; maximum measured response of dose series): 131.986%; perc_min_measured (SARS-CoV-2; minimum measured response of dose series): 2.165%; CC50 (HeLa-ACE2 cells; [11]): > 20 µM; cc10 (HeLa-ACE2 cells; [11]): > 20.0 µM; perc_max_measured (HeLa-ACE2 cells; [11]): 117.871% and 98.808%; perc_min_measured (HeLa-ACE2 cells; [11]): 61.501% and 55.999%; perc_remaining_no_cofactor [6, 13]: 100.0%; CC50 (iPSC pneumocytes): 48.6 µM; cc10 (iPSC pneumocytes): 41.767 µM; perc_max_measured (iPSC pneumocytes; highest measured response of the dose series): 107.062%; perc_min_measured (iPSC pneumocytes; lowest measured response of the dose series): 63.039%; papp_a_to_b_mean ([7]; mean): 2.79 ×10⁻⁶ cm/s; perc_recovery_a_to_b_mean ([7]; mean): 39.4%
O=C(NCc1cc2n(n1)CCCC2)c1cc2cncnc2[nH]1 [ASAP-0000134] |  |  |  |  |  |  |  |  |  |  |  |  |  |  |  | inhibition at 50 µM (SARS-CoV-2 nsp3-mac1 [8]): 4.17%; perc_max_measured (SARS-CoV-2 nsp3-mac1 [1]; TR-FRET dose response, highest measured response): 2.258%; perc_min_measured (SARS-CoV-2 nsp3-mac1 [1]; TR-FRET dose response, lowest measured response): -11.392%; IC50 (SARS-CoV-2 nsp3-mac1 [1]; TR-FRET dose response, supplement, read-out: ic50): > 124 µM; perc_inhibition_mean (SARS-CoV-2 nsp3-mac1 [2]; SARS-CoV-2 nsp3 macrodomain TR-FRET single point, concentration 50.0 uM): 4.173%
CC(C)C(Nc1ncnc2[nH]c(-c3cnn(C)c3)cc12)c1ccc2c(c1)OCCO2 (stereo not drawn) [ASAP-0008596] | 0.56 |  |  |  |  |  |  |  |  |  |  |  |  |  |  | 
CC(C)[C@@H](Nc1ncnc2[nH]c(-c3cnn(CCC(N)=O)c3)cc12)c1ccc2c(c1)OCCO2 [ASAP-0008482] |  | > 20 | 3.0 | 121.913% and 112.19% | 97.771% and 96.19% | > 20 µM | > 20 µM | 99.0 | 19.0 | 16.9 | 108.0 | 236 (≈ 109 µg/mL) | 62.0 | 36.0 | 27.1 | CC50 (HeLa-ACE2 cells; [11]): > 20 µM; perc_max_measured (HeLa-ACE2 cells; [11]): 111.916% and 92.58%; perc_min_measured (HeLa-ACE2 cells; [11]): 82.711% and 77.006%; perc_remaining_no_cofactor [6, 13]: 106.0%; papp_a_to_b_mean ([7]; mean): 1.46 ×10⁻⁶ cm/s; perc_recovery_a_to_b_mean ([7]; mean): 88.9%
CCNC(=O)c1cc2c(N[C@@H](c3ccc4c(c3)S(=O)(=O)CCO4)C(C)C)ncnc2[nH]1 (racemic) [ASAP-0012317] |  | > 20 | 2.9 | 111.753% | 79.377% | > 20 µM | > 20 µM | 64.0 | 33.0 | 26.2 | 95.0 | 328 (≈ 145 µg/mL) | 26.0 | 66.0 | 65.5 | CC50 (HeLa-ACE2 cells; HeLa-ACE2 cytotoxicity): > 20 µM; cc10 (HeLa-ACE2 cells; HeLa-ACE2 cytotoxicity): > 20.0 µM; perc_max_measured (HeLa-ACE2 cells; HeLa-ACE2 cytotoxicity): 105.961%; perc_min_measured (HeLa-ACE2 cells; HeLa-ACE2 cytotoxicity): 74.573%; perc_remaining_no_cofactor [6, 14]: 99.0%; papp_b_to_a_mean ([7]; B to A, no inhibitor): 1.5 ×10⁻⁶ cm/s and 1.4 ×10⁻⁶ cm/s; efflux_ratio ([7]; no inhibitor): 20.3 and 15.3; perc_recovery_a_to_b_mean ([7]; no inhibitor): 71.9% and 74.3% and 65.2%; perc_recovery_b_to_a_mean ([7]; no inhibitor): 68.3% and 88.2%; papp_b_to_a_inhibitor_mean ([7]; MDR1-MDCKII, B to A, with inhibitor Verapamil): 1.5 ×10⁻⁶ cm/s; perc_recovery_a_to_b_inhibitor_mean [7, 15]: 82.7%; perc_recovery_a_to_b_inhibitor_mean [7, 16]: 92.9%; perc_recovery_b_to_a_inhibitor_mean [7, 15]: 89.0%; perc_recovery_b_to_a_inhibitor_mean [7, 16]: 90.3%
CC(C)[C@@H](Nc1ncnc2[nH]ccc12)c1ccc2c(c1)S(=O)(=O)CCC2 (single isomer, unassigned) [ASAP-0008676] |  | > 20 | 2.5 | 117.108% | 66.698% | > 20 µM | > 20 µM | 21.0 | 69.0 | 78.6 | 99.0 | 386 (≈ 143 µg/mL) | 55.0 | 41.0 | 30.4 | CC50 (HeLa-ACE2 cells; HeLa-ACE2 cytotoxicity): > 20 µM; cc10 (HeLa-ACE2 cells; HeLa-ACE2 cytotoxicity): > 20.0 µM; perc_max_measured (HeLa-ACE2 cells; HeLa-ACE2 cytotoxicity): 101.14%; perc_min_measured (HeLa-ACE2 cells; HeLa-ACE2 cytotoxicity): 87.391%; perc_remaining_no_cofactor [6, 14]: 117.0%; papp_b_to_a_mean ([7]; B to A, no inhibitor): 7.1 ×10⁻⁶ cm/s and 4.9 ×10⁻⁶ cm/s; efflux_ratio ([7]; no inhibitor): 47.7 and 54.4; perc_recovery_a_to_b_mean ([7]; no inhibitor): 75.4% and 74.2% and 91.3%; perc_recovery_b_to_a_mean ([7]; no inhibitor): 80.0% and 74.5%; perc_recovery_a_to_b_inhibitor_mean [7, 15]: 72.2%; perc_recovery_a_to_b_inhibitor_mean [7, 16]: 82.4%; perc_recovery_b_to_a_inhibitor_mean [7, 15]: 63.3%; perc_recovery_b_to_a_inhibitor_mean [7, 16]: 89.1%
Cc1[nH]c2ncnc(NC(=O)c3ccncc3Cl)c2c1C [ASAP-0000266] | 25 |  |  |  |  |  |  |  |  |  |  |  |  |  |  | inhibition at 50 µM (SARS-CoV-2 nsp3-mac1 [2]; read-out: perc_inhibition_mean): 69.6%; inhibition at 100 µM (SARS-CoV-2 nsp3-mac1 [2]; read-out: perc_inhibition_mean): 85.6%

Source: article doi:10.1101/2024.08.19.608619, “Discovery of potent SARS-CoV-2 nsp3 macrodomain inhibitors uncovers lack of translation to cellular antiviral response” (bioRxiv, 2024)
